Results reported in ChEMBL document CHEMBL3352194, “The discovery of benzenesulfonamide-based potent and selective inhibitors of voltage-gated sodium channel Na(v)1.7” (Bioorg Med Chem Lett, 2014).

Key:
[1] = target: Sodium channel protein type 9 subunit alpha (Homo sapiens, UniProt Q15858); assay: Inhibition of human Nav1.7 expressed in HEK cells assessed as reduction in sodium current at -60 mV holding potential by PatchXpress platform based whole cell patch clamp electrophysiological assay; parameters: species or system HEK293
Cytochrome P450 2D6 [2] = target: T1, Cytochrome P450 2D6 (Homo sapiens, UniProt P10635); assay: (§1) Inhibition of CYP2D6 (unknown origin) using bufuralol substrate at 10 uM; type: ADME; settings: 10 µM
Cytochrome P450 3A4 [3] = target: T2, Cytochrome P450 3A4 (Homo sapiens, UniProt P08684); assay: (§2) Inhibition of CYP3A4 (unknown origin) using midazolam substrate at 10 uM; type: ADME; settings: 10 µM
Cytochrome P450 2C19 [4] = target: T3, Cytochrome P450 2C19 (Homo sapiens, UniProt P33261); assay: (§3) Inhibition of CYP2C19 (unknown origin) using omeprazole substrate at 10 uM; type: ADME; settings: 10 µM
Cytochrome P450 2C9 [5] = target: T4, Cytochrome P450 2C9 (Homo sapiens, UniProt P11712); assay: Inhibition of CYP2C9 (unknown origin) using diclofenac substrate; type: ADME
Cytochrome P450 2D6 [6] = target: T1, Cytochrome P450 2D6; assay: Inhibition of CYP2D6 (unknown origin) using bufuralol substrate; type: ADME
Cytochrome P450 3A4 [7] = target: T2, Cytochrome P450 3A4; assay: Inhibition of CYP3A4 (unknown origin) using midazolam substrate; type: ADME
Cytochrome P450 2C19 [8] = target: T3, Cytochrome P450 2C19; assay: Inhibition of CYP2C19 (unknown origin) using omeprazole substrate; type: ADME
CYP2C9 = CYP2C9 (Homo sapiens, UniProt P11712); assay: (§4) Inhibition of CYP2C9 (unknown origin) using diclofenac substrate at 10 uM; type: ADME; settings: probe diclofenac
CYP2D6 = CYP2D6 (Homo sapiens, UniProt P10635); assay: as §1; type: ADME; settings: probe bufuralol
CYP3A4 = CYP3A4 (Homo sapiens, UniProt P08684); assay: as §2; type: ADME; settings: probe midazolam
[9] = target: Sodium channel protein type 5 subunit alpha (Homo sapiens, UniProt Q14524); assay: Inhibition of human Nav1.5 expressed in HEK cells assessed as reduction in sodium current at -60 mV holding potential by PatchXpress platform based whole cell patch clamp electrophysiological assay; parameters: species or system HEK293
CYP2C19 = CYP2C19 (Homo sapiens, UniProt P33261); assay: as §3; type: ADME; settings: probe omeprazole
Cytochrome P450 2C9 [10] = target: T4, Cytochrome P450 2C9; assay: as §4; type: ADME; settings: 10 µM
Homo sapiens = organism: Homo sapiens; assay: Selectivity index, ratio of IC50 for human Nav1.5 to IC50 for human Nav1.7

Chain of CYP2C19 (P33261 whole entry): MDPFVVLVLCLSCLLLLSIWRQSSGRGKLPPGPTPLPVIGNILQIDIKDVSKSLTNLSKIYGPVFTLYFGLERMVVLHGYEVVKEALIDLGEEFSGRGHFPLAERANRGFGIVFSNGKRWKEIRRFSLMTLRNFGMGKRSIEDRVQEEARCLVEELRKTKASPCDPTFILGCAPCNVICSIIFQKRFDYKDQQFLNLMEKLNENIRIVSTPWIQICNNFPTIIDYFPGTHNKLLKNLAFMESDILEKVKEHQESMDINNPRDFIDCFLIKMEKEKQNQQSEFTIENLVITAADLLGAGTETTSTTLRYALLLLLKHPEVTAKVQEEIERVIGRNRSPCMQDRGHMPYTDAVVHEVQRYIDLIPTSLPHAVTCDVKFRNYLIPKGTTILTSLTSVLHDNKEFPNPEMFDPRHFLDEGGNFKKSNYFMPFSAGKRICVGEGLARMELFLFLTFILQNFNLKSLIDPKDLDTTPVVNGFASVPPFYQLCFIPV
T3 sequence (P33261 whole entry): as above
Chain of Sodium channel protein type 9 subunit alpha (Q15858 whole entry): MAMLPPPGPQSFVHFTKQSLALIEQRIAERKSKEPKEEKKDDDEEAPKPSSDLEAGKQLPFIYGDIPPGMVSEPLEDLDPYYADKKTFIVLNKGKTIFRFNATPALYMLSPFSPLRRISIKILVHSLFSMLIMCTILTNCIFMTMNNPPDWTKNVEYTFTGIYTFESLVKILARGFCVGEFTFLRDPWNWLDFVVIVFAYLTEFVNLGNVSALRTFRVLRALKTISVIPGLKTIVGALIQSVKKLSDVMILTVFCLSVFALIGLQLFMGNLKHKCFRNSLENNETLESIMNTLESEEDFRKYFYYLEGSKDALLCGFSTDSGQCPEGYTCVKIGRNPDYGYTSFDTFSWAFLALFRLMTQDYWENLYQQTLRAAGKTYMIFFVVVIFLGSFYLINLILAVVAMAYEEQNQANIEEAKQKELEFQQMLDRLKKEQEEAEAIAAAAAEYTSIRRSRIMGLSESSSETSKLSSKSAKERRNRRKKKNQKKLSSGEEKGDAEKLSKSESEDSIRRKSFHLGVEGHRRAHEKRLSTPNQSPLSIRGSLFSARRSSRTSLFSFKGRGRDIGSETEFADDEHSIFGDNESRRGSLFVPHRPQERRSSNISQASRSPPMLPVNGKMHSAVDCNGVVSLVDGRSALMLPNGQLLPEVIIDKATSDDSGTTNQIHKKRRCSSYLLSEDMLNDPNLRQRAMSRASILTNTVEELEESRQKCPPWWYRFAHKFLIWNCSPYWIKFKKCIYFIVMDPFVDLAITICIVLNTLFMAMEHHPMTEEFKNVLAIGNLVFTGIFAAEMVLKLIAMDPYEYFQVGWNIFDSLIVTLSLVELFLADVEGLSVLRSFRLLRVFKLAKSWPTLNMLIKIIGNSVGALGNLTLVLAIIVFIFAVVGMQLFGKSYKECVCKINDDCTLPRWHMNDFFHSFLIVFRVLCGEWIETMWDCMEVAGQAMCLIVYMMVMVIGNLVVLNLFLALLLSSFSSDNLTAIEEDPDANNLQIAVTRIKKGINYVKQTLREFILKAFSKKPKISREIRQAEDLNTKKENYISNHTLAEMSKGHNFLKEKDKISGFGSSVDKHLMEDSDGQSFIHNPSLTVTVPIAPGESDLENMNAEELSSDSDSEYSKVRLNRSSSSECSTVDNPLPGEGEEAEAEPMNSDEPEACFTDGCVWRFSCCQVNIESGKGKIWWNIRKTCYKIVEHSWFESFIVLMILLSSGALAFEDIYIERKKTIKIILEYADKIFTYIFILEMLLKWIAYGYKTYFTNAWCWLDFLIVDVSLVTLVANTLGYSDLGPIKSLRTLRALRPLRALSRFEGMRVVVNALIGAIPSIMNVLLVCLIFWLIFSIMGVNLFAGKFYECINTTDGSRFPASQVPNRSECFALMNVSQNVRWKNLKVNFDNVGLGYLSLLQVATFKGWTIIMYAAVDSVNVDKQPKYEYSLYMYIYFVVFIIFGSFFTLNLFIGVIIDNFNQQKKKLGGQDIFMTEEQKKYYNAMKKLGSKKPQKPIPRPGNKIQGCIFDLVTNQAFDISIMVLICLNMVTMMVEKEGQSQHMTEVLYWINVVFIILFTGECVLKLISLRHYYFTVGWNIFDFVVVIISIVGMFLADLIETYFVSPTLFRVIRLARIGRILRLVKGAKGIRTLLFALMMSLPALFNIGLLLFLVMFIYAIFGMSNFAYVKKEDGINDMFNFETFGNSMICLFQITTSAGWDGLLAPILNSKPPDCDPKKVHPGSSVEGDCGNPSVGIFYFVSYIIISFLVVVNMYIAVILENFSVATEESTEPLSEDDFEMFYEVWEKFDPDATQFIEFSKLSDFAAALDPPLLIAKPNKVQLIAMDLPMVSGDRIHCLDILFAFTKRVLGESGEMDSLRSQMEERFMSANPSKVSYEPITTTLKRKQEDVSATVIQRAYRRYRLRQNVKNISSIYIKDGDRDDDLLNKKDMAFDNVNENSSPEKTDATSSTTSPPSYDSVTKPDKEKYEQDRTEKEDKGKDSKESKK
T2 sequence (P08684 whole entry): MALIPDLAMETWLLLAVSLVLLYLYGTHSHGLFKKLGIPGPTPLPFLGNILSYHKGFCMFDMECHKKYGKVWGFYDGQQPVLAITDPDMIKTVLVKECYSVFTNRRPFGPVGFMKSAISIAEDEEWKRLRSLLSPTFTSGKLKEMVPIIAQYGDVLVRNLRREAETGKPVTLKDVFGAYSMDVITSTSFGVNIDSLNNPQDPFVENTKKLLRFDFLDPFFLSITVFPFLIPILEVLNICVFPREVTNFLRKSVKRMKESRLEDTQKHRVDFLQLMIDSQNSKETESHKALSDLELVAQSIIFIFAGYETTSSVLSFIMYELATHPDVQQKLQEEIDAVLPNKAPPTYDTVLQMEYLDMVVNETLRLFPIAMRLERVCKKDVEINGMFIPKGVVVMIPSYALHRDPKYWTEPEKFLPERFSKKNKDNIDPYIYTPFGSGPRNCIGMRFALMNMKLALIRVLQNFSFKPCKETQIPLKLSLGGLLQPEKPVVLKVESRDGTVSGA
Chain of CYP3A4 (P08684 whole entry): as above
T1 sequence (P10635 whole entry): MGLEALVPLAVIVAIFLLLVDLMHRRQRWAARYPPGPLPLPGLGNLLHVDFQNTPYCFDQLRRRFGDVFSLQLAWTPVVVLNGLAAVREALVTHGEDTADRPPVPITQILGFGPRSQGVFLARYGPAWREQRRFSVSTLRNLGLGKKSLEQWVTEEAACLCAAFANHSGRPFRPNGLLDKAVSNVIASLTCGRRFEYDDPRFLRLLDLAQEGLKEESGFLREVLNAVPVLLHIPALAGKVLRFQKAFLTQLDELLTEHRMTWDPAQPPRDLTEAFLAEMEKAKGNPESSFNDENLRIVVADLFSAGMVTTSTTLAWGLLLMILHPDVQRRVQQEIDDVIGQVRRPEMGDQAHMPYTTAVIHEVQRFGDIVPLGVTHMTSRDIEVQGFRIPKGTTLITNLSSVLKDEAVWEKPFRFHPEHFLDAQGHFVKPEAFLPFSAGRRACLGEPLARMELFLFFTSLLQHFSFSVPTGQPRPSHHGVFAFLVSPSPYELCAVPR
Chain of CYP2D6 (P10635 whole entry): as above
Chain of CYP2C9 (P11712 whole entry): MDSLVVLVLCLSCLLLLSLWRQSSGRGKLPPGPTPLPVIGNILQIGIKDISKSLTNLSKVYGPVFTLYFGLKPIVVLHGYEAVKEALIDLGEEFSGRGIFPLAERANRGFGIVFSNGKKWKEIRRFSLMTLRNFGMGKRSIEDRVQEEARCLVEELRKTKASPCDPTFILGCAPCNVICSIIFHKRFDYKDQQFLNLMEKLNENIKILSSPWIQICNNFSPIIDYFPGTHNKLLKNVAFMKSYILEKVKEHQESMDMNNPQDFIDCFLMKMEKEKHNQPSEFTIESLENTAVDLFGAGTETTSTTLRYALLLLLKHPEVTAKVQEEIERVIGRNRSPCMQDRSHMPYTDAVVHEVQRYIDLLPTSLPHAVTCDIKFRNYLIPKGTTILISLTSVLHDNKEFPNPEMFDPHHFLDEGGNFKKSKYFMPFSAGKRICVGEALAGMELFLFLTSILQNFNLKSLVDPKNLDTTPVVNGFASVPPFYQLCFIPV
T4 sequence (P11712 whole entry): as above

SMILES | IC50 [1] | inhibition at 10 µM (CYP2C9) | inhibition at 10 µM (CYP2D6) | inhibition at 10 µM (CYP3A4) | IC50 [9] | inhibition at 10 µM (CYP2C19) | other results
O=S(=O)(Nc1ncns1)c1cc(F)c(OC[C@@H]2CNCC[C@H]2c2ccc(Cl)cc2)cc1F | 0.059 µM | – | – | – | – | – | inhibition (INH) (Cytochrome P450 2D6 [2]): 82%; inhibition (INH) (Cytochrome P450 3A4 [3]): 96%; inhibition (INH) (Cytochrome P450 2C19 [4]): 84%
O=S(=O)(Nc1ncns1)c1cc(F)c(OC[C@H]2CNCC[C@H]2c2ccc(Cl)cc2)cc1F | 0.237 µM | – | – | – | – | – | –
O=S(=O)(Nc1ncns1)c1cc(F)c(OC[C@H]2CNCC[C@@H]2c2ccc(Cl)cc2)cc1F | – | – | – | – | – | – | IC50 (Cytochrome P450 2C9 [5]): 0.63 µM; IC50 (Cytochrome P450 2D6 [6]): 0.26 µM; IC50 (Cytochrome P450 3A4 [7]): 0.15 µM; IC50 (Cytochrome P450 2C19 [8]): > 10 µM
O=S(=O)(Nc1ncns1)c1cc(F)c(OCC2(F)CNCCC2c2ccc(F)cc2)cc1F (stereo not given) | – | 99% | 78% | 94% | > 10 µM | 71% | –
CN1CC[C@@H](c2ccc(Cl)cc2)[C@H](COc2cc(F)c(S(=O)(=O)Nc3ncns3)cc2F)C1 | – | – | – | – | – | – | inhibition (INH) (Cytochrome P450 2C9 [10]): 93%; inhibition (INH) (Cytochrome P450 2D6 [2]): 69%; inhibition (INH) (Cytochrome P450 3A4 [3]): 96%; IC50 ([9]; hek293): > 10 µM; inhibition (INH) (Cytochrome P450 2C19 [4]): 71%
CN1CC[C@H](c2ccc(Cl)cc2)[C@@H](COc2cc(F)c(S(=O)(=O)Nc3ncns3)cc2F)C1 | 0.004 µM | – | – | – | > 10 µM | – | IC50 (Cytochrome P450 2C9 [5]): 0.88 µM; IC50 (Cytochrome P450 2D6 [6]): 0.27 µM; IC50 (Cytochrome P450 3A4 [7]): 0.14 µM; IC50 (Cytochrome P450 2C19 [8]): > 10 µM
O=S(=O)(Nc1ncns1)c1cc(F)c(OC[C@@H]2CN(CCF)CC[C@H]2c2ccc(Cl)cc2)cc1F | 0.007 µM | 97% | 90% | 98% | > 10 µM | 96% | –
O=S(=O)(Nc1ncc(F)cn1)c1cc(F)c(OC[C@H]2CNCC[C@@H]2c2ccc(Cl)cc2)cc1F | – | – | – | – | > 10 µM | – | IC50 (Cytochrome P450 2C9 [5]): > 10 µM; IC50 (Cytochrome P450 2D6 [6]): > 10 µM; IC50 (Cytochrome P450 3A4 [7]): > 10 µM; IC50 (Cytochrome P450 2C19 [8]): > 10 µM
O=S(=O)(Nc1ncns1)c1cc(F)c(OC[C@@H]2CNCC[C@H]2c2ccc(Cl)cc2)cc1F (racemic) | – | 100% | 93% | 94% | – | 75% | –
O=S(=O)(Nc1ncns1)c1cc(F)c(OC[C@@H]2CNCC[C@H]2c2ccccc2)cc1F (relative stereo) | 0.0079 µM | 81% | 82% | 95% | > 10 µM | 81% | Ratio IC50 (Homo sapiens): > 1000
O=S(=O)(Nc1ncns1)c1cc(F)c(OC[C@@H]2CNCC[C@H]2c2ccc(F)cc2)cc1F (relative stereo) | 0.0068 µM | 100% | 92% | 96% | > 10 µM | 97% | –
O=S(=O)(Nc1ncns1)c1cc(F)c(OC[C@H]2CNCC[C@@H]2c2ccc(F)c(F)c2)cc1F (relative stereo) | – | 96% | 85% | 90% | > 10 µM | 74% | –
O=S(=O)(Nc1ncns1)c1cc(F)c(OC[C@H]2CNCC[C@@H]2c2ccc(Cl)c(F)c2)cc1F (relative stereo) | – | 100% | 85% | 96% | > 10 µM | 60% | –
Cc1ccc([C@H]2CCNC[C@@H]2COc2cc(F)c(S(=O)(=O)Nc3ncns3)cc2F)cc1 (relative stereo) | 0.013 µM | 100% | 81% | 95% | > 10 µM | 59% | –
O=C1C[C@@H](c2ccc(F)cc2)[C@H](COc2cc(F)c(S(=O)(=O)Nc3ncns3)cc2F)CN1 (relative stereo) | 0.082 µM | 58% | 6% | 95% | > 10 µM | 64% | –
O=S(=O)(Nc1ncns1)c1cc(F)c(OC[C@@H]2CCNC[C@H]2c2ccc(F)cc2)cc1F (relative stereo) | 0.032 µM | 97% | 61% | 89% | 5.9 µM | 69% | –

SMILES | IC50 [1] | inhibition at 10 µM (CYP2C9) | inhibition at 10 µM (CYP2D6) | inhibition at 10 µM (CYP3A4) | IC50 [9] | inhibition at 10 µM (CYP2C19) | other results
O=S(=O)(Nc1ncns1)c1cc(F)c(OC[C@@H]2CNC[C@H]2c2ccc(Cl)cc2)cc1F (relative stereo) | 0.05 µM | 100% | 97% | 93% | – | 90% | –
O=S(=O)(Nc1ncns1)c1cc(F)c(OC[C@@H]2CCCC[C@H]2c2ccc(Cl)cc2)cc1F (relative stereo) | 0.28 µM | 100% | 66% | 99% | 24.7 µM | 95% | –
CC(C)(C)OC(=O)N1CC[C@@H](c2ccc(Cl)cc2)[C@H](COc2cc(F)c(S(=O)(=O)Nc3ncns3)cc2F)C1 (relative stereo) | 0.164 µM | 100% | 78% | 98% | – | 100% | –
CN1CC[C@@H](c2ccc(Cl)cc2)[C@H](COc2cc(F)c(S(=O)(=O)Nc3ncns3)cc2F)C1 (relative stereo) | 0.011 µM | 97% | – | 97% | > 10 µM | 86% | inhibition (INH) (Cytochrome P450 2D6 [2]): 93%
O=S(=O)(Nc1ncns1)c1cc(F)c(OC[C@@H]2CN(CC(F)F)CC[C@H]2c2ccc(Cl)cc2)cc1F (relative stereo) | 0.038 µM | 100% | 61% | 98% | – | 88% | –
O=S(=O)(Nc1ncns1)c1cc(F)c(OC[C@@H]2CN(CC(F)(F)F)CC[C@H]2c2ccc(Cl)cc2)cc1F (relative stereo) | 0.13 µM | 100% | 47% | 97% | 2.6 µM | 85% | –
Cc1nsc(NS(=O)(=O)c2cc(F)c(OC[C@@H]3CNCC[C@H]3c3ccc(Cl)cc3)cc2F)n1 (relative stereo) | 0.194 µM | 100% | 55% | 61% | – | 73% | –
O=S(=O)(Nc1nncs1)c1cc(F)c(OC[C@@H]2CNCC[C@H]2c2ccc(Cl)cc2)cc1F (relative stereo) | 0.084 µM | 99% | 54% | 30% | > 10 µM | 35% | –
Cc1cnc(NS(=O)(=O)c2cc(F)c(OC[C@@H]3CNCC[C@H]3c3ccc(Cl)cc3)cc2F)s1 (relative stereo) | – | 99% | 48% | 22% | – | 42% | –
O=S(=O)(Nc1ncc(Cl)s1)c1cc(F)c(OC[C@@H]2CNCC[C@H]2c2ccc(Cl)cc2)cc1F (relative stereo) | – | 100% | 40% | 11% | – | 20% | –
Cc1cc(NS(=O)(=O)c2cc(F)c(OC[C@@H]3CNCC[C@H]3c3ccc(Cl)cc3)cc2F)no1 (relative stereo) | 1.89 µM | 80% | 38% | 24% | – | 29% | –
O=S(=O)(Nc1ccc(F)cn1)c1cc(F)c(OC[C@@H]2CNCC[C@H]2c2ccc(Cl)cc2)cc1F (relative stereo) | 0.071 µM | 99% | 50% | 42% | > 10 µM | 56% | –
O=S(=O)(Nc1cccnn1)c1cc(F)c(OC[C@@H]2CNCC[C@H]2c2ccc(Cl)cc2)cc1F (relative stereo) | 0.171 µM | 49% | 37% | 13% | – | 36% | –
O=S(=O)(Nc1ccncn1)c1cc(F)c(OC[C@@H]2CNCC[C@H]2c2ccc(Cl)cc2)cc1F (relative stereo) | – | 91% | 94% | 57% | > 10 µM | 72% | –
O=S(=O)(Nc1ncccn1)c1cc(F)c(OC[C@@H]2CNCC[C@H]2c2ccc(Cl)cc2)cc1F (relative stereo) | 0.053 µM | 60% | 34% | 12% | > 10 µM | 15% | –
O=S(=O)(Nc1ncc(F)cn1)c1cc(F)c(OC[C@@H]2CNCC[C@H]2c2ccc(Cl)cc2)cc1F (relative stereo) | – | 73% | 35% | 25% | > 10 µM | 26% | –
